Measured values: patent publication US12419305B2, “Antimicrobial compositions” (Firmenich SA, priority 2018, dated 2025)

How the values were obtained:
[1] = test system: Pseudomonas aeruginosa ATCC 15442; assay: BCT test (bacterial contact time), 60 s, log reduction / effect fraction; CI by Compusyn; type: cell-based; conditions: BCT 60 s, in 25% EtOH
Method: (§1) E. coli, S. aureus, P. aeruginosa, and S. enterica: Separate suspensions of the E. coli ATCC 10536 strain, S. aureus ATCC 6538 strain, Pseudomonas aeruginosa ATCC 15442 strain, and the Salmonella enterica ATCC 10708 strain were prepared as follows: Stock cultures (stored at −80° C.) were thawed and sub-cultured onto Tryptic Soy Agar (TSA) agar plate media, and incubated at 37° C. for 24 h to obtain single colonies. Single colonies of the primary cultures were streaked onto TSA plates and incubated at 37° for 24 h to generate secondary cultures. Single colonies of secondary cultures picked and used to inoculate into 50 mL of TSB broth. The inoculated TSB broth was incubated at 37° C. at 180 rpm for 18 h. Aliquots (0.5 ml) of the 18 h culture were inoculated into 50 ml of fresh TSB broth, and incubated at 37° C. at 180 rpm for 2-3 hours. When the OD600 nm value of the broth reached 1-2, cells were harvested by centrifugation at 5000 rpm for 10 min, and then resuspended in fresh TSB broth at a concentration of 1-5×10^8 CFU/mL. These suspensions were used as the bacterial suspensions for the BCT test.
(§2) BCT Test: Test compositions at a range of concentrations (either combinations of more than one perfume ingredient, and comparative compositions comprising the single perfume ingredients) were prepared in ethanol. Five replicates of each test composition were added into 96-well microtiter plates (120 μl per well), with row B containing control compositions containing the ethanol solution alone. 120 μl of bacterial cell suspensions at a concentration of approximately 1×10^8 bacteria per mL (as prepared above) were added to each well of the microtiter plate. The bacterial suspensions were incubated with the test solutions for 45, 60, or 120 seconds. Following the incubation of the bacterial suspensions with the test solutions, serial dilutions of the bacterial suspensions were generated (three serial 1:10 dilutions, followed by 17 serial 1:2 dilutions), in multiwell microtiter plates.
(§3) Each plate was sealed and incubated at 37° C. under agitation (180 rpm). After incubation, the turbidity of the wells (OD600 nm) was determined using a Tecan microplate reader. Turbid wells were regarded as positive growth, due to the presence of viable cells. The total number of viable cells (log CFU) for each sample was calculated. And the log reduction for each test composition at the final concentration (dose) was calculated against the control sample of the ethanol solution.
(§4) Determination of Synergy via the Combination Index (CI): The CI was calculated using Compusyn software (ComboSyn, Inc., as created by Dr. Dorothy Chou in 2005), according to the manufacturer's instructions. The concentration of each test composition (combinations of more than one perfume ingredient, and comparative compositions comprising the single perfume ingredients used to generate the combination) and their corresponding effect fraction was entered, and the corresponding CI calculated.
(§5) When the calculated CI values were less than 0.9, the combination of perfume ingredients was regarded as having synergistic effect. When the calculated CI was between 1.0 a 0.9, the combination of perfume ingredients was regarded as having an additive effect. When the calculated CI was greater than 1.0, the combination of perfume ingredients was regarded as having an antagonistic effect.

E. coli ATCC 10536 = assay: BCT test (bacterial contact time), 45 s, log reduction / effect fraction; CI by Compusyn; type: cell-based, Escherichia coli; conditions: 45 s, in 20% EtOH
Method: as §1, §2, §3, §4, §5

S. aureus ATCC 6538 = assay: BCT test (bacterial contact time), 60 s, log reduction / effect fraction; CI by Compusyn; type: cell-based, Staphylococcus aureus; conditions: Staphylococcus aureus, ATCC6538, 1 min, 60 s, in 25% EtOH
Method: as §1, §2, §3, §4, §5

O=Cc1ccc2c(c1)OCO2 [Heliotropine, 1,3-benzodioxole-5-carbaldehyde]
Log reduction ([1]; Dose 0.2 % w/v): 0.00
log reduction at 0.2 % strength ([1]; Pseudomonas aeruginosa, ATCC15442, 1 min, Dose 0.2 % w/v): 0
log reduction at 0.3 % strength ([1]; Pseudomonas aeruginosa, ATCC15442, 1 min, Dose 0.3 % w/v): 0.6
log reduction at 0.4 % strength ([1]; Pseudomonas aeruginosa, ATCC15442, 1 min, Dose 0.4 % w/v): 3.4
log reduction at 0.45 % strength ([1]; Pseudomonas aeruginosa, ATCC15442, 1 min, Dose 0.45 % w/v): 4.1
log reduction at 0.55 % strength ([1]; Pseudomonas aeruginosa, ATCC15442, 1 min, Dose 0.55 % w/v): 7.6
log reduction at 0.45 % strength (E. coli ATCC 10536; Escherichia coli, ATCC10536, 45 s, dose 0.450 % w/v): 0.1
log reduction at 0.55 % strength (E. coli ATCC 10536; Escherichia coli, ATCC10536, 45 s, dose 0.550 % w/v): 5.3
log reduction at 0.6 % strength (E. coli ATCC 10536; Escherichia coli, ATCC10536, 45 s, dose 0.600 % w/v): 7.3
Log reduction (E. coli ATCC 10536; dose 0.450 % w/v): 0.1
log reduction at 0.5 % strength (S. aureus ATCC 6538; dose 0.500 % w/v): 0.7
log reduction at 0.6 % strength (S. aureus ATCC 6538; dose 0.600 % w/v): 2.7
log reduction at 0.7 % strength (S. aureus ATCC 6538; dose 0.700 % w/v): 6.1
log reduction at 0.75 % strength (S. aureus ATCC 6538; dose 0.750 % w/v): 7.1
log reduction at 1 % strength (S. aureus ATCC 6538; dose 1.000 % w/v): 7.1
